Test results from patent US20010044151A1, “Ligands for modulating the expression of exogenous genes via an ecdysone receptor complex” (priority 1998, published 2001).
Where two headings read alike, the source gives them in different places.

Molecular target: T1, ecdysteroid receptor complex in Drosophila Kc cell cytosolic extract (Drosophila melanogaster, UniProt P34021)
T1 construct: The supernatant, containing the cytosolic protein extract; endogenous in cells; host or cells: Drosophila Kc167 cells, cytosolic extract
T1 sequence (P34021 1-878): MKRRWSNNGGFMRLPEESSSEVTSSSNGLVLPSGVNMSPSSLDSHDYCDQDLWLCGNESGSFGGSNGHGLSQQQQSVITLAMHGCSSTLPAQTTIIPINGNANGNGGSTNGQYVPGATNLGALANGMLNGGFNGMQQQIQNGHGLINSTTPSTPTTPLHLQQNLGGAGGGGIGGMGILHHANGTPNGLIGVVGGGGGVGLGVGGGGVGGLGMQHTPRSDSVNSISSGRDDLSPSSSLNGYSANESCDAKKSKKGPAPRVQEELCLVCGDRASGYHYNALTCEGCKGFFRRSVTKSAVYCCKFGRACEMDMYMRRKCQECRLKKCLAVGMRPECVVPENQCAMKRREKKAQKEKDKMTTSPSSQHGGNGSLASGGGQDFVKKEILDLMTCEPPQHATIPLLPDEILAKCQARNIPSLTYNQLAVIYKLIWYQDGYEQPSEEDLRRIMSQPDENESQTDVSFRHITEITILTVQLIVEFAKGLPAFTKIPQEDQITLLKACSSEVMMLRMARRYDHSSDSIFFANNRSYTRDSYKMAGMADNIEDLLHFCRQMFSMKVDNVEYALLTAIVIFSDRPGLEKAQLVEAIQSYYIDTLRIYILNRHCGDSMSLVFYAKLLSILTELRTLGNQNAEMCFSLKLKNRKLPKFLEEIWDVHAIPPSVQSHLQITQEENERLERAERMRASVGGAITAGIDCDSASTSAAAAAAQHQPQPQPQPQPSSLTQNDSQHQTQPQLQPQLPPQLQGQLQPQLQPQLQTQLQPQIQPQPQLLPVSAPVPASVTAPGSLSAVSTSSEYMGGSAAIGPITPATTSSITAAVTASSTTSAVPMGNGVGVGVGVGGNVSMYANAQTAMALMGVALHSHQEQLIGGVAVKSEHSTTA
T1 sequence (P20153 1-508 partner): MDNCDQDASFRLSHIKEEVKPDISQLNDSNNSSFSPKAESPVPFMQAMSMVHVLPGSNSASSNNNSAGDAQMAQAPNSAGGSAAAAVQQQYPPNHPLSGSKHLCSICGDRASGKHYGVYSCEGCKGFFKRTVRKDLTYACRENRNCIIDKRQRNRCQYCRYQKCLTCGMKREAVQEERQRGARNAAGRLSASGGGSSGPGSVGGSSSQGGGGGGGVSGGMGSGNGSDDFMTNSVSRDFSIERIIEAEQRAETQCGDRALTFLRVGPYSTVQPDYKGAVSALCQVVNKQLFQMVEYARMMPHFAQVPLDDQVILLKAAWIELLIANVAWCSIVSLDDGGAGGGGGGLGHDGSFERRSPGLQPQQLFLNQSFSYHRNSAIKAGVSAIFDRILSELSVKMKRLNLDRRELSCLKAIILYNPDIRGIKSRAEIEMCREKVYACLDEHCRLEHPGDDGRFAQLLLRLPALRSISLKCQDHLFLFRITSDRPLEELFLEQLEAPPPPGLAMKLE
Experiment: Competitive 3H-ponasterone A binding assay, Kc cytosolic ecdysone receptor extract
Conditions: for EC50 / Kc log(1/EC50): Kc cells/extract; for EC50: read-out: Kc log(1/EC50) (converted); for Kd: read-out: Kd for Kc cells
Experimental: The dipteran cell line Kc167, originally derived from Drosophila embryos (see Echalier, G. and Ohanessian, A. (1969) C. R. Acad. Sci., 268, 1771) was obtained from Dr. Peter Cherbas (Indiana University) and maintained as described (Cherbas, L., et. al., (1994), Methods in Cell Biology, 44, 161-179). A 400 ml culture of Kc Cells (3×10^7 cells per ml) was centrifuged at 700×g for 10 minutes at room temperature to pellet the cells. The supernatant was aspirated and the pellet was resuspended in 70 ml of cold TM buffer (10 mM Tris, 5 mM MgCl2, 1 mM DTT, pH 7.2). After a 10 minute incubation on ice, the cells were centrifuged at 2,300×g. The supernatant was discarded. The cell pellet was frozen at −20° C. for 1 hour. The frozen cell pellet was thawed slowly on ice and homogenized in a cold Potter-Elvehjem homogenizer using a teflon pestle on a Caframo homogenizer motor, at setting 500 with 10 up and down strokes at 4° C. This slurry was centrifuged at 100,000×g in a swinging bucket rotor for 60 minutes. The supernatant, containing the cytosolic protein extract was diluted with T buffer (10 mM Tris, 1 mM DTT, pH 7.2) to a protein concentration of 5 mg/ml. This extract was used immediately for ligand binding assays.
^3H ponasterone A, a potent phytoecdysteroid, (66,000 dpm; specific activity 170 Ci/mmole; NEN Life Science Products, Boston, Mass.) was mixed with 100 μl Kc cytosolic or Plodia nuclear ecdysone receptor extracts in […] glass test tubes in the absence or presence of 10 μM unlabelled 20-hydroxyecdysone (20E) to obtain an estimate of total or non-specific respectively, binding of tritiated ponasterone A. The tubes were vortexed and incubated overnight at 4° C. for Kc cytosolic extracts or 1.5 hours for Plodia nuclear extracts for binding reactions to reach equilibrium. At the end of equilibrium binding times, the bound tritiated ponasterone A was separated from the unbound by addition of ice-cold 600 μl or 300 μl dextran-coated charcoal solution (500 mg of Sigma HCL-washed activated charcoal, 50 mg Pharmacia Dextran T70, 50 ml T-buffer) to Kc or Plodia extracts, respectively. The tubes were vortexed briefly and centrifuged at 7,000×g to pellet the charcoal. The supernatant, 600 μl or 300 μl for Kc or Plodia extract reactions, respectively, containing tritiated ponasterone A bound to proteins, was aspirated into liquid scintillation vials containing 5 ml scintillation cocktail (ReadySafe®, Beckmann) each The mixture was vortexed and the amount of total or non-specifically bound radioactivity measured in a Beckmann LS500 liquid scinitllation counter with a 60% counting efficiency for tritium.
The concentrations of competitors that inhibited 50% of tritiated ponasterone A binding (IC50) was determined by incubating Kc or Plodia nuclear extracts or extracts of bacteria producing CfEcR(CDEF)-GST and CfUSP-GST fusions proteins with ^3H-ponasterone A (66,000 dpm per reaction) in the presence of a range of concentrations (0.1 nM to 10 μM) of test compounds. In the case of binding reactions using bacterial fusion proteins, 20 or one μl extract of bacteria producing CfEcR(CDEF)-GST or CfUSP-GST fusion proteins, respectively, were included per binding reaction. The assay conditions and determination of total and non-specific binding was as described above. The volume of competitor in solvent, like that for 20E or solvent alone, was kept at 1% of total reaction volume by using a 100 fold concentrated stock solution (i.e. a 100 fold dilution of stock solutions). The remainder of the assay was as described above. Each reaction was carried out in duplicate per concentration per test compound. Specific binding of ^3H-ponasterone A was determined by subtracting non-specific binding (that obtained in the presence of 10 μM 20E) from total (no competitor) or competed radioactivity bound. The data for each test compound was analyzed using IGOR Pro software (WaveMetrics, Lake Oswego, Oreg.) to calculate IC50 value. […]

Molecule `CCc1ccc(C(=O)NN(C(=O)c2cc(C)cc(C)c2)C(C)(C)C)cc1` [CE-1, N-(4-ethylbenzoyl)-N′-(3,5-dimethylbenzoyl)-N′-tert-butyl-hydrazine, reference compound] has an EC50 of 282 nM, a Kd (Table 2) of 110 nM and a Kd (Table 3) of 192 nM.

`CC(C)(C)N(NC(=O)c1ccccc1)C(=O)c1ccccc1` [CE-2, 1,2-dibenzoyl-1-tert-butyl-hydrazine, reference compound] was tested, and the EC50 was 3020 nM, the Kd (Table 2) was 2000 nM and the Kd (Table 3) was 2000 nM.

`CC(C)CC[C@@H](O)[C@](C)(O)[C@H]1CC[C@@]2(O)C3=CC(=O)[C@]4(O)C[C@@H](O)[C@@H](O)C[C@]4(C)[C@H]3[C@H](O)C[C@]12C` [CE-3, muristerone A, reference compound] was tested, and the “Kc log(1/EC50)” value was 7.96, the Kd (Table 2) was 2.3 nM and the Kd (Table 3) was 2 nM.

`CC(C)CC[C@@H](O)[C@](C)(O)[C@H]1CC[C@@]2(O)C3=CC(=O)[C@@H]4C[C@@H](O)[C@@H](O)C[C@]4(C)[C@H]3CC[C@]12C` [CE-4, ponasterone A, reference compound] showed a Kd (Table 2) of 0.7 nM and a Kd (Table 3) of 0.7 nM.

With `CCc1c(OC)cccc1C(=O)NN(C(=O)c1cccc(OC)c1)C(C)(C)C` [Ligand 1] the “Kc log(1/EC50)” value was 7.36, the Kd (Table 2) was 39.5 nM and the Kd (Table 3) was 40 nM.

For `Cc1cc(C)cc(C(=O)N(NC(=O)c2ccc3c(c2C)OCCO3)C(C)(C)C)c1` [Ligand 2], the “Kc log(1/EC50)” value was 7.16, the Kd (Table 2) was 60 nM and the Kd (Table 3) was 47 nM.

In the case of `COc1cccc(C(=O)NN(C(=O)c2cc(C)cc(C)c2)C(C)(C)C)c1C` [Ligand 3], the “Kc log(1/EC50)” value is reported as 6.74, the Kd (Table 2) is reported as 124 nM and the Kd (Table 3) is reported as 124 nM.

For `CCc1c(OC)cccc1C(=O)NN(C(=O)c1cc(F)cc(F)c1)C(C)(C)C` [Ligand 4], the “Kc log(1/EC50)” value was 7.41, the Kd (Table 2) was 47 nM and the Kd (Table 3) was 26 nM.

In the case of `CCc1c(OC)cccc1C(=O)NN(C(=O)c1cc(C)cc(C)c1)C(C)(C)C` [Ligand 5], the “Kc log(1/EC50)” value is reported as 7.70, the Kd (Table 2) is reported as 13.3 nM and the Kd (Table 3) is reported as 13 nM.

With `CCOc1cccc(C(=O)NN(C(=O)c2cc(C)cc(C)c2)C(C)(C)C)c1CC` [Ligand 12] the “Kc log(1/EC50)” value was 8.10, the Kd (Table 2) was 5.3 nM and the Kd (Table 3) was 5 nM.

With `CCc1c(OC)cccc1C(=O)NN(C(=O)c1cc(Cl)cc(Cl)c1)C(C)(C)C` [Ligand 13] the “Kc log(1/EC50)” value was 7.44, the Kd (Table 2) was 65 nM and the Kd (Table 3) was 24 nM.
